Legend:
[1] = target: T1, Inhibitor of nuclear factor kappa-B kinase subunit epsilon (Homo sapiens) (UniProt Q14164); assay: Inhibition of IKKe Lys1 labeling site in human A-375 cells at 5 uM by KiNativ Profiling analysis relative to control; type: cell-based
T1 sequence (whole entry): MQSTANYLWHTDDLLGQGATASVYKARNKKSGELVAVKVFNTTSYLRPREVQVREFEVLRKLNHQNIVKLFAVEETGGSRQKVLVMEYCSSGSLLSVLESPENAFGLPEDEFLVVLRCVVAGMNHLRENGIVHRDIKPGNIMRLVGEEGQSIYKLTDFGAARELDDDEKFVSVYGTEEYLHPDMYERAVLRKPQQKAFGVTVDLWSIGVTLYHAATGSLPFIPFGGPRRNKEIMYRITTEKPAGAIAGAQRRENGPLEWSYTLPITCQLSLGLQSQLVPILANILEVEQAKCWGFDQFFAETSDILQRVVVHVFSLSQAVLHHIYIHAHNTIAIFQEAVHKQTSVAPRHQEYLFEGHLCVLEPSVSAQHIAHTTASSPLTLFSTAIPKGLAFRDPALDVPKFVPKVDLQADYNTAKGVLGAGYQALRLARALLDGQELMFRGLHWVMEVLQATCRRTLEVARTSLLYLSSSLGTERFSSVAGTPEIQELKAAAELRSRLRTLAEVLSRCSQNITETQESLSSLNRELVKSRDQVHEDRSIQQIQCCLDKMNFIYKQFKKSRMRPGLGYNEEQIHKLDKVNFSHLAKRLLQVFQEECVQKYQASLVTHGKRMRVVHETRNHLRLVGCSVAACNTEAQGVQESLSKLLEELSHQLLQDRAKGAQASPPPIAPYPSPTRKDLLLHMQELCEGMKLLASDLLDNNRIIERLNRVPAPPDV

[2] = target: T2, Mitogen-activated protein kinase kinase kinase 3 (Homo sapiens) (UniProt Q99759); assay: Inhibition of MAP3K3 (unknown origin) at 10 uM by Ambit Kinomescan binding assay relative to control
T2 sequence (whole entry): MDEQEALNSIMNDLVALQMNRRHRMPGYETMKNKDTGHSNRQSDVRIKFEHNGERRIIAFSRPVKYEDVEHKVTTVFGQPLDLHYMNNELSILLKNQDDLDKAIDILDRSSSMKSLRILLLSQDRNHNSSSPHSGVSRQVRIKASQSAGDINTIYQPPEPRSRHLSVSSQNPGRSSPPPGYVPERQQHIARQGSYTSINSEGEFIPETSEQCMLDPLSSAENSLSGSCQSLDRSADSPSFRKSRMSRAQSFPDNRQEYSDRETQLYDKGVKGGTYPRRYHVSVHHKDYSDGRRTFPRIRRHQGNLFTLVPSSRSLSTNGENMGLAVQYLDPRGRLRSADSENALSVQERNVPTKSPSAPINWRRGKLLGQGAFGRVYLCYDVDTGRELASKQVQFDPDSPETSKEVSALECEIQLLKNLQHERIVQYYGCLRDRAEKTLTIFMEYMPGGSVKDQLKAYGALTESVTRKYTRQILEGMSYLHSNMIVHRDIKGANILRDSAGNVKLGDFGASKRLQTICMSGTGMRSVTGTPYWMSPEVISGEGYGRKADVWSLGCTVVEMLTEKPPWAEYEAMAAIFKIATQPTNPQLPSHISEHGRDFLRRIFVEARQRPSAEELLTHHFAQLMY

[3] = target: T3, Phosphatidylinositol 4,5-bisphosphate 3-kinase catalytic subunit delta isoform (Homo sapiens) (UniProt O00329); assay: Inhibition of PIK3CD ATP labeling site in human A-375 cells at 5 uM by KiNativ Profiling analysis relative to control; type: cell-based
T3 sequence (whole entry): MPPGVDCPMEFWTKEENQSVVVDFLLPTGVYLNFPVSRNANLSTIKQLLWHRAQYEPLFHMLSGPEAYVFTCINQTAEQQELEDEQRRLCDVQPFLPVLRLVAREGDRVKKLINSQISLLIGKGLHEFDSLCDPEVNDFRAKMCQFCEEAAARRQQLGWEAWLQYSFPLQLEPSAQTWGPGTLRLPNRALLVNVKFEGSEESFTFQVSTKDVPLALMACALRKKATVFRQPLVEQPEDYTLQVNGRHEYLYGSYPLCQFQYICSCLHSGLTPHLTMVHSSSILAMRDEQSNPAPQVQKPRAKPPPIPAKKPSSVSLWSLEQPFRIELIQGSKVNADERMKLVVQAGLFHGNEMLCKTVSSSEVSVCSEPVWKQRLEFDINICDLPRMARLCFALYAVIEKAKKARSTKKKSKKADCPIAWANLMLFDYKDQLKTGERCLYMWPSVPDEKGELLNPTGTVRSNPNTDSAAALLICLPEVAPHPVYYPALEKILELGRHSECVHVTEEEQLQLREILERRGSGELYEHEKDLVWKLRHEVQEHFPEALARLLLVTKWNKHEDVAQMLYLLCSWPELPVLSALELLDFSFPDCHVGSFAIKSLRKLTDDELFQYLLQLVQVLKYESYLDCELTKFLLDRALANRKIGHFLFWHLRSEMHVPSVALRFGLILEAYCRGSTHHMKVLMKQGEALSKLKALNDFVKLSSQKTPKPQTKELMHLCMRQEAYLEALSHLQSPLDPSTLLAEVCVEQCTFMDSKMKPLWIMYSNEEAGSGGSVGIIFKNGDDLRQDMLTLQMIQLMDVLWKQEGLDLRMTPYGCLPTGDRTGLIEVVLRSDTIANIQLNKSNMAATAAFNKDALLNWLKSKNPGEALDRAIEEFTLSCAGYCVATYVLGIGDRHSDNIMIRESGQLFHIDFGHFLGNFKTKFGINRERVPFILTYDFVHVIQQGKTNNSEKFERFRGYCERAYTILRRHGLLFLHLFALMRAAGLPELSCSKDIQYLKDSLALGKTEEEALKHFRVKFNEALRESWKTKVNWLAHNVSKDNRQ

[4] = target: Tyrosine-protein kinase JAK1 (Homo sapiens) (UniProt P23458); assay: Inhibition of JAK1 domain2 ACT labeling site in human A-375 cells at 0.5 uM by KiNativ Profiling analysis relative to control; type: cell-based
Tyrosine-protein kinase JAK1 (Homo sapiens), sequence (P23458 whole entry, the tested form may be a part): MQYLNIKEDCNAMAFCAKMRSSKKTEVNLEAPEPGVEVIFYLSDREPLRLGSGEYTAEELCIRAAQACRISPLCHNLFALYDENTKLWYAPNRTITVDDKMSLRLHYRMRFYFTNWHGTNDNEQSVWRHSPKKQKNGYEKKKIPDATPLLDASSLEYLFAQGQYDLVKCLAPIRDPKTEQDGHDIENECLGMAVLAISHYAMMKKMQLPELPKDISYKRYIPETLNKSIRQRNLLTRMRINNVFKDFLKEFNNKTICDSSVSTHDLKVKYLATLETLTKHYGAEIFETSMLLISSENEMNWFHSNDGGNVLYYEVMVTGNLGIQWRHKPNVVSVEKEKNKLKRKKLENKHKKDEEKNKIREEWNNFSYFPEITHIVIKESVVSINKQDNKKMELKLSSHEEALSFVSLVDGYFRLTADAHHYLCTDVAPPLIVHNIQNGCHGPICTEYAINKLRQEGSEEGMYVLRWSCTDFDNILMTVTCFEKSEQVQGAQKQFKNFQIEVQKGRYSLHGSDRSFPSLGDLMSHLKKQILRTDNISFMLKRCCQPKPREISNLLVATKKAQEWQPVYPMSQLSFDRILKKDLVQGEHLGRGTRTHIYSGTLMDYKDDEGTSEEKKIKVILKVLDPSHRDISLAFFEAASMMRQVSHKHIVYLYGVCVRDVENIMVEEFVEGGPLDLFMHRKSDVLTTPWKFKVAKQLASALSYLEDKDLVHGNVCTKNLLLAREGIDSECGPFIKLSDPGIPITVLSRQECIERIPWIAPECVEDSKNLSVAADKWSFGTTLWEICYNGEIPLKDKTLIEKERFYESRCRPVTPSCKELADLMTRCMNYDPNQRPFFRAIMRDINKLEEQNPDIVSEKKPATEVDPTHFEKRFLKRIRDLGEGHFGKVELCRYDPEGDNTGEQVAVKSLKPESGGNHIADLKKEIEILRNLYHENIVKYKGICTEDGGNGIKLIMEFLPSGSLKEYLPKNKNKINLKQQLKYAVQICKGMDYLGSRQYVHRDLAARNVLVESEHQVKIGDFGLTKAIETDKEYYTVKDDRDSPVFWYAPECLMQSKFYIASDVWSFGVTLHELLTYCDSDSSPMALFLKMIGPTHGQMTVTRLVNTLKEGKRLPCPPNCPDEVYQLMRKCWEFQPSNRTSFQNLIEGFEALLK

[5] = target: Platelet-derived growth factor receptor alpha (Homo sapiens) (UniProt P16234); assay: Inhibition of PDGFRA (unknown origin) at 1 uM by Ambit Kinomescan binding assay relative to control; values are per cent of control
Platelet-derived growth factor receptor alpha (Homo sapiens), sequence (P16234 whole entry): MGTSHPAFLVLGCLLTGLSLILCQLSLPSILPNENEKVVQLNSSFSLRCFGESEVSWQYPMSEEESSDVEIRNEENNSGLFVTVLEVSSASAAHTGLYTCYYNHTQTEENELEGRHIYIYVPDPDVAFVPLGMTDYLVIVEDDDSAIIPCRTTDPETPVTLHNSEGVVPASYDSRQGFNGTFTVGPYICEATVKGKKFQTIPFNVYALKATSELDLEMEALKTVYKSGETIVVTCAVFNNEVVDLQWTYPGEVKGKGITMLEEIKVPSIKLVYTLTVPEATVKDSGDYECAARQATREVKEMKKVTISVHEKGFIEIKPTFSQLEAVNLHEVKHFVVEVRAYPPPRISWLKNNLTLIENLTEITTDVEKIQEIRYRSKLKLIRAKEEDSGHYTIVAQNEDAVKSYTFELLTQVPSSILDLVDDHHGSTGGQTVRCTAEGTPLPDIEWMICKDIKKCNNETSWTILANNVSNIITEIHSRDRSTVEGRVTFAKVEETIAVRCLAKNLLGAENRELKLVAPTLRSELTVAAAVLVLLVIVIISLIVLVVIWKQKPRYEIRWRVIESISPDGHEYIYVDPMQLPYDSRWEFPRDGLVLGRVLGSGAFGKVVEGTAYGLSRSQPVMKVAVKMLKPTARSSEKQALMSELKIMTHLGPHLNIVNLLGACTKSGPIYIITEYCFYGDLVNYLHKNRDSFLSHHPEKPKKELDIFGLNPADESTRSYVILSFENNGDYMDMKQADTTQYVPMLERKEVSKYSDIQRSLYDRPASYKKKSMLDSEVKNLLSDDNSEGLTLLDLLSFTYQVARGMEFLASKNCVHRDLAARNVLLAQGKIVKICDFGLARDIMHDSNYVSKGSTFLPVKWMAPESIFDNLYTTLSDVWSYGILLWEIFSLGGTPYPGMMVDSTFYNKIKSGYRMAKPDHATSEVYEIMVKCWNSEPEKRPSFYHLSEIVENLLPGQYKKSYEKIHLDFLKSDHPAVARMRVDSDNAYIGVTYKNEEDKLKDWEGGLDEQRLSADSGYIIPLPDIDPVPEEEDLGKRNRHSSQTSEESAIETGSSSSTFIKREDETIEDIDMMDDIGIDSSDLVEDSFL

[6] = test system: Tyrosine-protein kinase ABL1 (Homo sapiens), P00519 [H396P]; assay: Inhibition of phosphorylated ABL1 H396P mutant (unknown origin) at 1 uM by Ambit Kinomescan binding assay relative to control; values are per cent of control
[7] = target: Serine/threonine-protein kinase 38-like (Homo sapiens) (UniProt Q9Y2H1); assay: Inhibition of NDR2 ACT labeling site in human Huh-7 cell lysate at 1 uM by KiNativ Profiling analysis relative to control; type: subcellular
Serine/threonine-protein kinase 38-like (Homo sapiens), sequence (Q9Y2H1 2-464 limits assumed): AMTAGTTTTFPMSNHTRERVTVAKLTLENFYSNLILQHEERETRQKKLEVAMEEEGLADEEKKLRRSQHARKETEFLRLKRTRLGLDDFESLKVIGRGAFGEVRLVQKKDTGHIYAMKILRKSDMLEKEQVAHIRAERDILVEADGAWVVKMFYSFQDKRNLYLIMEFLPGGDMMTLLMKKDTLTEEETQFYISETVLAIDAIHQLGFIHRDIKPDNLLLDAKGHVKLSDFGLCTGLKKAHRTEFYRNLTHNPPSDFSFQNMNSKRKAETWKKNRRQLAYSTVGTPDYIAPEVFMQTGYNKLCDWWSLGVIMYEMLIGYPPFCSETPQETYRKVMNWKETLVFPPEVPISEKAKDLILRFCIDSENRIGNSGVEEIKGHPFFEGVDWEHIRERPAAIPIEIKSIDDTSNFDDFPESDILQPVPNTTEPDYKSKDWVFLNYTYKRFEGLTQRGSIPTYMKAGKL

[8] = target: Serine/threonine-protein kinase 32C (Homo sapiens) (UniProt Q86UX6); assay: Inhibition of YANK3 Lys2 labeling site in human Huh-7 cell lysate at 1 uM by KiNativ Profiling analysis relative to control; type: subcellular
Serine/threonine-protein kinase 32C (Homo sapiens), sequence (Q86UX6 whole entry): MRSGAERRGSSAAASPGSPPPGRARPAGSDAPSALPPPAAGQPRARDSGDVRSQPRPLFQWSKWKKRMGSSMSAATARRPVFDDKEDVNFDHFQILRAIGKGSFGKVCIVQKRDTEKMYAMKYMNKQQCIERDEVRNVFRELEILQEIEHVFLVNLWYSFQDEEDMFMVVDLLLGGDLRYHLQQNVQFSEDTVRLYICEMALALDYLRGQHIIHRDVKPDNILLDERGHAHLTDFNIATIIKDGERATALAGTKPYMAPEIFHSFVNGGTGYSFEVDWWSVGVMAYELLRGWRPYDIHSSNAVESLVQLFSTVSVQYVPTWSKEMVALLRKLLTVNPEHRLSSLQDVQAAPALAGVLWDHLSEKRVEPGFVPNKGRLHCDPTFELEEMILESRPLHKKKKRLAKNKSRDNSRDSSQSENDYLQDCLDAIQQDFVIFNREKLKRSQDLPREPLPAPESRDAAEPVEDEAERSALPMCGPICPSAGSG

In the case of `CCN1CCN(Cc2ccc(NC(=O)c3ccc(C)c(Oc4ccnc5[nH]ccc45)c3)cc2C(F)(F)F)CC1`, the inhibition [1] was 0.8% and the inhibition [2] was 12%.

`CCN1CCN(Cc2ccc(NC(=O)c3ccc(C)c(/C=C/c4cnc5[nH]ccc5c4OC)c3)cc2C(F)(F)F)CC1` was tested, and the inhibition [3] was 21.3%, the inhibition [4] was 5% and the residual activity [5] was 2.6%. The percent of control [6] was 0.8%.

Compound `CNc1cc(Oc2cc(C(=O)Nc3cc(N4CCN(C)CC4)cc(C(F)(F)F)c3)ccc2C)ncn1` has an inhibition [7] of 4.2% and an inhibition [8] of -3.3%.
